Consider 19 compounds from ChEMBL document CHEMBL1151868, “Identification of pyrazolo[1,5-a]pyrimidine-3-carboxylates as B-Raf kinase inhibitors” (Bioorg Med Chem Lett, 2009).

The target in experiment [1] is Serine/threonine-protein kinase B-raf (Homo sapiens, UniProt P15056). Kind of experiment: Inhibition of human recombinant B-Raf expressed in Sf9 cells assessed as inhibition of Mek1 phosphorylation.
For experiment [2], the target named is RAC-alpha serine/threonine-protein kinase (Homo sapiens, UniProt P31749). The experiment can be described thus: Inhibition of AKT.
For the next experiment, the system named is SW-620. Kind of experiment: Growth inhibition of human SW620 cells. The class given is functional, cell-based.
The target in experiment [3] is Tyrosine-protein kinase Lck (Homo sapiens, UniProt P06239). Kind of experiment: Inhibition of LCK.
The target in experiment [4] is Proto-oncogene tyrosine-protein kinase Src (Homo sapiens, UniProt P12931). Kind of experiment: Inhibition of SRC.
Experiment [5] is described as follows: Growth inhibition of human WM266.4 cells. The class given is functional, cell-based. Conditions: WM 266-4.
The subject of another experiment is HT-29. The experiment can be described thus: Growth inhibition of human HT-29 cells. The class given is functional, cell-based.
Experiment [6] deals with Cyclin-dependent kinase 4 (Homo sapiens, UniProt P11802). The experiment can be described thus: Inhibition of CDK4.
In experiment [7] the target is Insulin-like growth factor 1 receptor (Homo sapiens, UniProt P08069). The experiment can be described thus: Inhibition of IGFR1.
The target of experiment [8] is Tyrosine-protein kinase Lyn (Homo sapiens, UniProt P07948). The experiment can be described thus: Inhibition of LYN.
The target of experiment [9] is Mitogen-activated protein kinase kinase kinase 8 (Homo sapiens, UniProt P41279). The experiment can be described thus: Inhibition of Tpl2.
In experiment [10] the target is Tyrosine-protein kinase BTK (Homo sapiens, UniProt Q06187). The experiment can be described thus: Inhibition of BTK.
The target in experiment [11] is Phosphatidylinositol 4,5-bisphosphate 3-kinase catalytic subunit alpha isoform (Homo sapiens, UniProt P42336). Kind of experiment: Inhibition of PI3Kalpha.
The next experiment deals with BXPC-3. Kind of experiment: Growth inhibition of human BxPC3 cells. The class given is functional, cell-based.
The subject of a further experiment is A-375. Kind of experiment: Growth inhibition of human A375 cells. The class given is functional, cell-based.
Experiment [12] has as its target Vascular endothelial growth factor receptor 2 (Homo sapiens, UniProt P35968). The experiment can be described thus: Inhibition of KDR.
Another experiment concerns LoVo. Kind of experiment: Growth inhibition of human LoVo cells. Type of experiment: functional, cell-based.
Experiment [13] concerns the target Serine/threonine-protein kinase mTOR (Homo sapiens, UniProt P42345). Kind of experiment: Inhibition of mTOR.
The next experiment relates to Caco-2. Kind of experiment: Growth inhibition of human Caco-2 cells. Type of experiment: functional, cell-based.

Serine/threonine-protein kinase B-raf, sequence (P15056 whole entry): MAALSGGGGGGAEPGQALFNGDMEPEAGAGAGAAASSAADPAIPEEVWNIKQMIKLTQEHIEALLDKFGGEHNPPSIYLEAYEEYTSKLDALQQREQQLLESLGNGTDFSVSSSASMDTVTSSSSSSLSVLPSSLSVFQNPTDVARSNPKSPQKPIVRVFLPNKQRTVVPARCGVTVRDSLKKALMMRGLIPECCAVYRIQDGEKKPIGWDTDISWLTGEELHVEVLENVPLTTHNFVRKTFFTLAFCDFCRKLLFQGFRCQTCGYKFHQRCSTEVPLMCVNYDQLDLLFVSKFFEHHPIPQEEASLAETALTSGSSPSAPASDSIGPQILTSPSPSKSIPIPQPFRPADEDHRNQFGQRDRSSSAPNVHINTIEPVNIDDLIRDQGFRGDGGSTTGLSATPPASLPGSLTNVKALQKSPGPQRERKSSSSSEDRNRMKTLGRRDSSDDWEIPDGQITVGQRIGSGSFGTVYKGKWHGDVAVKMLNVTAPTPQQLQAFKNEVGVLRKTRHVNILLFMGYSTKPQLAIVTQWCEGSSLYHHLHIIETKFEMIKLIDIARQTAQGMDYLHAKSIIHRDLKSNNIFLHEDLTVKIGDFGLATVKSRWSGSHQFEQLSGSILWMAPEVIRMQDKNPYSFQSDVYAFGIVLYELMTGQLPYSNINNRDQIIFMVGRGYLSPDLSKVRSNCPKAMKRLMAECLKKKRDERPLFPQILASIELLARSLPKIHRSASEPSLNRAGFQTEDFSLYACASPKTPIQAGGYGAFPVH
Tyrosine-protein kinase BTK, sequence (Q06187 whole entry, canonical isoform): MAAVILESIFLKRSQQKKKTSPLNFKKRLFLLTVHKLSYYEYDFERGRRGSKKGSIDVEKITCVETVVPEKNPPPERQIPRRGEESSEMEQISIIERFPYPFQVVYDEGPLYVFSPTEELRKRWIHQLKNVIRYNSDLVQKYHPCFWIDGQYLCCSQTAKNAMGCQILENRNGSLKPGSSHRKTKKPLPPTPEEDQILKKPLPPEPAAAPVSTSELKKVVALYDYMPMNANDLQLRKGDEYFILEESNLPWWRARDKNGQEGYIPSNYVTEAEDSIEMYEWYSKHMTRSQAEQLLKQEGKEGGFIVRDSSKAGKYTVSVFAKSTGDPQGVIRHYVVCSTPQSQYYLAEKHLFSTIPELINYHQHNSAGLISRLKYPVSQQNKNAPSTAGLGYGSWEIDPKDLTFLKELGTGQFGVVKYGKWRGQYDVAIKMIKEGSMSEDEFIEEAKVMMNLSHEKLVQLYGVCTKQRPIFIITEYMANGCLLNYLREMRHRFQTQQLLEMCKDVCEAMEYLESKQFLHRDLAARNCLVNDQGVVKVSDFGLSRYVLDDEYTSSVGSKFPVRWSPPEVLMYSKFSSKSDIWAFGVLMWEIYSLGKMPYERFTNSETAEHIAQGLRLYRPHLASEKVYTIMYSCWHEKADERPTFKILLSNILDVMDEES
Cyclin-dependent kinase 4, sequence (P11802 whole entry): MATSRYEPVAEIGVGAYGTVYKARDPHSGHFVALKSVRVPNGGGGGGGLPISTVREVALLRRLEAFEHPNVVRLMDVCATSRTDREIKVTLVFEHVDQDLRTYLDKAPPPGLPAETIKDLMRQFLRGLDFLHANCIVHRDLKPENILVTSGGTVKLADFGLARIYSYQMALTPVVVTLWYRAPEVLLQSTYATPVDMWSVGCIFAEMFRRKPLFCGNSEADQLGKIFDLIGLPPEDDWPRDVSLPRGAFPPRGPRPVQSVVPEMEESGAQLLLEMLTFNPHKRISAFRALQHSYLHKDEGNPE
Insulin-like growth factor 1 receptor, sequence (P08069 31-736 limits assumed): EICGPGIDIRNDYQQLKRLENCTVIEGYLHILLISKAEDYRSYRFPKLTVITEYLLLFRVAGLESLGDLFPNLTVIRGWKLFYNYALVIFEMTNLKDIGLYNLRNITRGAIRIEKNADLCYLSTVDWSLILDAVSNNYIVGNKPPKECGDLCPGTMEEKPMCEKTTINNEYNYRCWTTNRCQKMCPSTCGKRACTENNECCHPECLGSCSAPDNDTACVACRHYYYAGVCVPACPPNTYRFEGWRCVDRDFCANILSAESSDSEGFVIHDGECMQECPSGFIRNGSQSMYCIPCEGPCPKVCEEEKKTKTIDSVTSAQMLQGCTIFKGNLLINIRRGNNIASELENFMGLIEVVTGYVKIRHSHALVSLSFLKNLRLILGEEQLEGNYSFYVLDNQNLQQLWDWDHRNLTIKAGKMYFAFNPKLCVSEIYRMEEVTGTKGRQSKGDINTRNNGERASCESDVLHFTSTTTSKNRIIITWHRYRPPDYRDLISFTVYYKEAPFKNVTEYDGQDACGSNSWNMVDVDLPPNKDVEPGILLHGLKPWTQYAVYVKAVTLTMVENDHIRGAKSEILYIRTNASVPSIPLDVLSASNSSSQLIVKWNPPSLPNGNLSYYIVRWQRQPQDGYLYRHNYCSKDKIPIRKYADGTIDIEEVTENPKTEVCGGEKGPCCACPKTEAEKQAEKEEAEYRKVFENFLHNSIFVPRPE
Insulin-like growth factor 1 receptor, sequence (P08069 741-1367 limits assumed): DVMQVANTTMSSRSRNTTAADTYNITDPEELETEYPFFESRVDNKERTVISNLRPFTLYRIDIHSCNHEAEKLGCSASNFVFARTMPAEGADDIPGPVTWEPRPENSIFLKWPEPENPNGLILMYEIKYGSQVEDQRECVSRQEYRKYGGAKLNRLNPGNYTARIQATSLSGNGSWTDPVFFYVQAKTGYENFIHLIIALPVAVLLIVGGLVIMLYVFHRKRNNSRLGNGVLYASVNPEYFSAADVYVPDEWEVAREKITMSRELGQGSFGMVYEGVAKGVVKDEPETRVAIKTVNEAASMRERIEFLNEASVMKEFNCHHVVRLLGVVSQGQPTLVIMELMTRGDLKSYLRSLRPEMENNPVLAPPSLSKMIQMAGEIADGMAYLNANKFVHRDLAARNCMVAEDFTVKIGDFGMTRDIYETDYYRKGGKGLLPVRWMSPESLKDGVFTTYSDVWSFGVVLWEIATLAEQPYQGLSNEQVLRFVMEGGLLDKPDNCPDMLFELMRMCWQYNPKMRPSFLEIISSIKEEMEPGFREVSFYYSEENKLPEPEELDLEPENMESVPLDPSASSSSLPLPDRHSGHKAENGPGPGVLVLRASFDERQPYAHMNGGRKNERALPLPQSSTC
Phosphatidylinositol 4,5-bisphosphate 3-kinase catalytic subunit alpha isoform, sequence (P42336 whole entry, canonical isoform): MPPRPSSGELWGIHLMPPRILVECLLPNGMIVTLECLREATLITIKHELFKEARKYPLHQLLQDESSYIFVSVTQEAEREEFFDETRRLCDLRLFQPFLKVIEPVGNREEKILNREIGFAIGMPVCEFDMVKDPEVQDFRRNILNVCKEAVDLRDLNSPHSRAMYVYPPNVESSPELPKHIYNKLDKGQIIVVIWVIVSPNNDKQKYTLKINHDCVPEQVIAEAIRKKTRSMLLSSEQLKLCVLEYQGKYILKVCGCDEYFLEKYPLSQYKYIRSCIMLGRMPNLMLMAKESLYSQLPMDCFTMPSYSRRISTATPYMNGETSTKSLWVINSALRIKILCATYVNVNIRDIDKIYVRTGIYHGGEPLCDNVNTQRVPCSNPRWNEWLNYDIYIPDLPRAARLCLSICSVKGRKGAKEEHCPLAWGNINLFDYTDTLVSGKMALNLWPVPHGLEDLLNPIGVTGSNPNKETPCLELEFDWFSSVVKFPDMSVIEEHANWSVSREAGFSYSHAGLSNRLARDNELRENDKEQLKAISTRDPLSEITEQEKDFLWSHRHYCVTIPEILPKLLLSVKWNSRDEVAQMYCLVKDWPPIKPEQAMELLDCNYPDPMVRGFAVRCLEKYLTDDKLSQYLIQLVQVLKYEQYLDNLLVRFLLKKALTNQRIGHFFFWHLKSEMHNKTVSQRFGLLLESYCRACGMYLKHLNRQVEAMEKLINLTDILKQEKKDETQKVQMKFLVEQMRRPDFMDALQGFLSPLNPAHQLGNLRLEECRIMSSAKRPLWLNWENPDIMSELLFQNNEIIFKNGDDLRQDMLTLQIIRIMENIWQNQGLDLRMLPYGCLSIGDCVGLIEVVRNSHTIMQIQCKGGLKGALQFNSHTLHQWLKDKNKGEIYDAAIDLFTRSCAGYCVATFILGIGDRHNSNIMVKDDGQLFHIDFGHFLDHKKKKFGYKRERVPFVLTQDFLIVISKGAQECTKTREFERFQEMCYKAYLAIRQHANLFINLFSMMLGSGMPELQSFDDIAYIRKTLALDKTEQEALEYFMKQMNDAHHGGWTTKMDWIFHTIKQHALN
RAC-alpha serine/threonine-protein kinase, sequence (P31749 whole entry): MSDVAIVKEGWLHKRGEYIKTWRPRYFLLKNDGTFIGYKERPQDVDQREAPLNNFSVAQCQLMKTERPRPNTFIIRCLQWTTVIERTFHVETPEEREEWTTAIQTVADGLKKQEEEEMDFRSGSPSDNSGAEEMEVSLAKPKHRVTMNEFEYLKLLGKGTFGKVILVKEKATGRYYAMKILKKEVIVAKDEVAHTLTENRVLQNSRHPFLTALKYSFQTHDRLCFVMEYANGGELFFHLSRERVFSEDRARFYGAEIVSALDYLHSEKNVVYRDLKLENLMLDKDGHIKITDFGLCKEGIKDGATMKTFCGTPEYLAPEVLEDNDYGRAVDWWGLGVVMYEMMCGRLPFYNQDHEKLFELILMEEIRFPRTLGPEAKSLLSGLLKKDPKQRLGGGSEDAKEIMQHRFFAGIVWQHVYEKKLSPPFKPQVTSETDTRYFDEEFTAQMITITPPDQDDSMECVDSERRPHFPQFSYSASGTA

Regarding `CCOC(=O)c1cnn2c(-c3cccc(NC(=O)c4cccc(C#N)c4)c3)ccnc12`, the IC50 in experiment [1] is over 10 µM.

As for `CCOC(=O)c1cnn2c(-c3cccc(NC(=O)c4cc(C(F)(F)F)ccc4C)c3)ccnc12`, the IC50 in experiment [1] was over 10 µM.

On to `O=C(Nc1cccc(-c2ccnc3c(C(=O)NCCN4CCOCC4)cnn23)c1)c1cccc(C(F)(F)F)c1`, for which the IC50 in experiment [1] turned out to be 6.34 µM.

With `CCOC(=O)c1cnn2c(-c3cccc(NC(=O)c4cccc(C(F)(F)F)c4)c3)ccnc12`, the concentration for half-maximal inhibition (IC50) in experiment [2] is over 10 µM; in the experiment on SW-620 it was 8.3 µM; in experiment [3] it was over 10 µM; in [4], over 10 µM; in [5], 6.2 µM; in [1] it was 1.54 µM. In addition, the IC50 in the experiment with HT-29 was 7 µM; in experiment [6], over 10 µM; in experiment [7], over 10 µM; in experiment [8], over 10 µM; in [9], over 10 µM; in experiment [10] it was over 10 µM. Besides, the IC50 in [11] is over 10 µM; in the experiment on BXPC-3, 3.25 µM; with A-375, 3.8 µM; in [12], over 10 µM; in the experiment on LoVo it was 3.87 µM; in experiment [13] it was over 10 µM. In the experiment on Caco-2, this compound showed a half-inhibitory concentration (IC50) of 6.6 µM.

`CCOC(=O)c1cnn2c(-c3cccc(NC(=O)Nc4ccc(F)c(C(F)(F)F)c4)c3)ccnc12`: the IC50 in experiment [1] is 0.24 µM.

Take `CCOC(=O)c1cnn2c(-c3cccc(NC(=O)Nc4cccc(Cl)c4)c3)ccnc12`: the half-maximal inhibitory concentration (IC50) in experiment [1] is over 10 µM.

Turning to `CCOC(=O)c1cnn2c(-c3cccc(NC(=O)Nc4cccc(C(F)(F)F)c4)c3)ccnc12`, the IC50 in experiment [1] amounted to 0.54 µM.

On to `COCCCNC(=O)c1cnn2c(-c3cccc(NC(=O)Nc4ccc(Cl)c(C(F)(F)F)c4)c3)ccnc12`, for which, in experiment [1], the IC50 was 0.27 µM.

Turning to `CCN(CC)CCNC(=O)c1cnn2c(-c3cccc(NC(=O)Nc4ccc(Cl)c(C(F)(F)F)c4)c3)ccnc12`, the IC50 in experiment [1] amounted to 0.17 µM.

Regarding `CCOC(=O)c1cnn2c(-c3cccc(NC(=O)c4ccc(OC)c(C(F)(F)F)c4)c3)ccnc12`, the IC50 in [1] is 1.03 µM.

Regarding `CCOC(=O)c1cnn2c(-c3cccc(NC(=O)Nc4cc(C(F)(F)F)ccc4Cl)c3)ccnc12`, the half-maximal inhibitory concentration (IC50) in experiment [1] was over 10 µM.

`CCOC(=O)c1cnn2c(-c3cccc(NC(=O)Nc4ccc(C(F)(F)F)cc4)c3)ccnc12`: the IC50 in [1] is 3.6 µM.

For the compound `CCOC(=O)c1cnn2c(-c3cccc(NC(=O)Nc4ccc(Cl)c(C(F)(F)F)c4)c3)ccnc12`, the half-maximal inhibitory concentration (IC50) in experiment [1] amounted to 0.36 µM.

Take `CCOC(=O)c1cnn2c(-c3cccc(NC(=O)Nc4ccc(C)c(C(F)(F)F)c4)c3)ccnc12`: in experiment [1], the IC50 was found to be 0.36 µM.

As to `CCOC(=O)c1cnn2c(-c3cccc(NC(=O)c4ccc(Cl)c(C(F)(F)F)c4)c3)ccnc12`, the IC50 in experiment [1] is 4.27 µM.

As to `O=C(Nc1cccc(-c2ccnc3c(C(=O)NCCN4CCOCC4)cnn23)c1)Nc1ccc(Cl)c(C(F)(F)F)c1`, the 50% inhibitory concentration (IC50) in experiment [1] worked out at 0.16 µM.

Consider `CCOC(=O)c1cnn2c(-c3cccc(NC(=O)c4ccccc4)c3)ccnc12`, for which the concentration for half-maximal inhibition (IC50) in experiment [1] was over 10 µM.

Take `O=C(Nc1cccc(-c2ccnc3c(C(=O)OCC(F)(F)F)cnn23)c1)c1cccc(C(F)(F)F)c1`: the IC50 in experiment [1] was determined as 1.45 µM.

Consider `CCOC(=O)c1cnn2c(-c3cccc(NC(=O)c4cccc(OC(F)(F)F)c4)c3)ccnc12`, for which the half-inhibitory concentration (IC50) in [1] came out at 1.57 µM.

For orientation: IC50 means the point on the concentration scale where inhibition reaches its midpoint.
